Laboratory results taken from US7897369B2, “Isoprenoid wax ester synthases, isoprenoid acyl CoA-synthetases, and uses thereof” (Regents of the University of Minnesota, priority 2007, dated 2011).
Entries after “also recorded” stand apart in the source; their conditions may differ.

Columns and labels:
[1] = test system: WS1; test: Coupled enzyme assay, WS substrate profile (TLC); assay type: biochemical, Marinobacter hydrocarbonoclasticus DSM 8798; parameters: key to WE formation (spot intensity of wax ester products on TLC), WS1, C10 / WE formation (spot intensity of wax ester products on TLC), WS1, C12 / WE formation (spot intensity of wax ester products on TLC), WS1, C14 / WE formation (spot intensity of wax ester products on TLC), WS1, C16 / WE formation (spot intensity of wax ester products on TLC), WS1, Phytol / WE formation (spot intensity of wax ester products on TLC), WS1, Farnesol: no activity (−); ranging from no activity (−) to most active (+++); ranging from no activity (−) to most active (+++); most active (+++); conditions: for WE formation (spot intensity of wax ester products on TLC), WS1, Farnesol: alcohol farnesol; for WE formation (spot intensity of wax ester products on TLC), WS1, Farnesol / WE formation (spot intensity of wax ester products on TLC), WS1, Phytol / WE formation (spot intensity of wax ester products on TLC), WS1, C10 / WE formation (spot intensity of wax ester products on TLC), WS1, C12 / WE formation (spot intensity of wax ester products on TLC), WS1, C14 / WE formation (spot intensity of wax ester products on TLC), WS1, C16: 12 h at 37° C., each substrate 250 μM; for WE formation (spot intensity of wax ester products on TLC), WS1, Phytol: alcohol phytol; for WE product formation by WS1 (TLC), in words: coupled reaction, palmitic acid with hexadecanol, phytanic acid with phytol, phytanoyl-CoA with the alcohols named in the value; for WE formation (spot intensity of wax ester products on TLC), WS1, C10: fatty alcohol C10; for WE formation (spot intensity of wax ester products on TLC), WS1, C12: fatty alcohol C12; for WE formation (spot intensity of wax ester products on TLC), WS1, C14: fatty alcohol C14; for WE formation (spot intensity of wax ester products on TLC), WS1, C16: fatty alcohol C16
Protocol: (§1) Stock solutions of various substrates were prepared in 50 mM Tris-HCl buffer (pH 8) containing 1% gum arabic, 12.5 μg bovine serum albumin ml^−1, 0.1% taurocholate, and either 100 mM fatty acid, isoprenoid acid, fatty alcohol, or isoprenoid alcohol. Stock solutions were sonicated to disperse the substrates. Substrate profiles of the three WS were tested using coupled enzyme in vitro reactions in which the CoA synthetases Acs1 and Acs2 are added to synthesize the CoA-activated fatty acid phytanic acid substrates from corresponding acid precursors for the WS reactions. Assays were carried out in 500-μl reactions containing in 50 mM Tris-HCl buffer (pH 8.0), 12.5 μl of each acid, and alcohol substrate stock solution (final concentrations of each substrate of 250 μM), 10 mM MgCl2, 10 mM CoASH, 10 mM ATP, 5 mM TCEP, 0.1 U of inorganic pyrophosphatase, 0.25 μg of Acs1 and Acs2 CoA synthetase, and 0.5 μg of WS to be tested. Assays were incubated at 37° C. overnight before thin-layer chromatography (TLC) analysis of the reaction products.
(§2) In vitro WS assay samples were extracted with 500 μl of chloroformmethanol (1:1 [vol/vol]), and extracts were analyzed by TLC with Whatman normal phase silica gel 60 plates and developed using hexane-diethyl ether-acetic acid (90:10:1 [vol/vol/vol]). TLC plates were stained with either iodine vapor or anisaldehyde solution as described earlier (Jork et al., 1990. Thin-layer chromatography reagents and detection methods, vol. 1a. Physical and chemical detection methods: fundamentals, reagents. VHC, Weinheim, Germany). Palmitoyl palmitate and triolein were used as WE and TAG reference compounds, respectively.

[2] = test system: Acs2; test: CoA synthetase assay (HPLC, LC-MS); assay type: biochemical, Marinobacter hydrocarbonoclasticus DSM 8798; conditions: 10 mM acid, 20 min at 37° C.
Protocol: (§3) In vitro reactions were performed as described previously (Trivedi et al., 2004, Nature, 428:441-445) with some modifications. CoA synthetase assays were carried out in 250-μl reaction volumes containing 50 mM Tris-HCl buffer (pH 7.5), 0.1% Triton X-100, 10 mM MgCl2, 5 mM TCEP, 0.1 U of inorganic pyrophosphatase, and as substrates 10 mM phytanic or fatty acids, 10 mM reduced coenzyme A (CoASH), 10 mM ATP, and 0.5 μg of purified Acs (either 1, 2, 3, or 4) protein. The reactions were incubated for 20 min at 37° C. and stopped with 25 μl of 5% acetic acid, followed by HPLC analysis of the reaction products.
(§4) CoA-synthetase assay samples (25 μl) were resolved on an Agilent 1100 HPLC (Agilent Technologies, Palo Alto, Calif.) equipped with a photodiode array detector set to 259 nm. Samples were separated on a reversed-phase Eclipse XDB-C8 column (Agilent Technologies) at a flow rate of 1 ml min^−1. Solvent A consisted of 20 mM ammonium acetate (pH 5.4) in HPLC-grade water, and solvent B contained acetonitrile and methanol (85:15 [vol/vol]). Acyl-CoA and phytanoyl-CoA products were eluted using the following conditions: solvent A-solvent B at 65:35 from 0 to 5 min, followed by a gradient from solvent A-solvent B at 65:35 to 100% solvent B in 30 min. Liquid chromatography-mass spectrometry (LC-MS) analyses of reaction products were done with an LCQ mass spectrophotometer equipped with an electrospray ionization source (ESI) (Thermo Finnigan). Mass fragmentation spectra were monitored in a mass range of m/z 400 to 1,500 with a negative ESI interface.

[3] = test system: Acs3; test: CoA synthetase assay (HPLC, LC-MS); assay type: biochemical, Marinobacter hydrocarbonoclasticus DSM 8798; conditions: 10 mM acid, 20 min at 37° C.
Protocol: as §3, §4

[4] = test system: Acs4; test: CoA synthetase assay (HPLC, LC-MS); assay type: biochemical, Marinobacter hydrocarbonoclasticus DSM 8798; conditions: 10 mM acid, 20 min at 37° C.
Protocol: as §3, §4

[5] = biological target: T1, WS2 (Marinobacter nauticus, UniProt A3RE51); test: Coupled enzyme assay, WS substrate profile (TLC); assay type: biochemical, Marinobacter hydrocarbonoclasticus DSM 8798; parameters: key to WE formation (spot intensity of wax ester products on TLC), WS2, C16 / WE formation (spot intensity of wax ester products on TLC), WS2, Phytol / WE formation (spot intensity of wax ester products on TLC), WS2, Farnesol / WE formation (spot intensity of wax ester products on TLC), WS2, C10 / WE formation (spot intensity of wax ester products on TLC), WS2, C12 / WE formation (spot intensity of wax ester products on TLC), WS2, C14: no activity (−); ranging from no activity (−) to most active (+++); ranging from no activity (−) to most active (+++); most active (+++); conditions: for WE formation (spot intensity of wax ester products on TLC), WS2, Farnesol: alcohol farnesol; for WE formation (spot intensity of wax ester products on TLC), WS2, Farnesol / WE formation (spot intensity of wax ester products on TLC), WS2, Phytol / WE formation (spot intensity of wax ester products on TLC), WS2, C10 / WE formation (spot intensity of wax ester products on TLC), WS2, C12 / WE formation (spot intensity of wax ester products on TLC), WS2, C14 / WE formation (spot intensity of wax ester products on TLC), WS2, C16: 12 h at 37° C., each substrate 250 μM; for WE formation (spot intensity of wax ester products on TLC), WS2, Phytol: alcohol phytol; for WE product formation by WS2 (TLC), in words: coupled reaction, palmitic acid with hexadecanol, phytanic acid with phytol, phytanoyl-CoA with the alcohols named in the value; for WE formation (spot intensity of wax ester products on TLC), WS2, C10: fatty alcohol C10; for WE formation (spot intensity of wax ester products on TLC), WS2, C12: fatty alcohol C12; for WE formation (spot intensity of wax ester products on TLC), WS2, C14: fatty alcohol C14; for WE formation (spot intensity of wax ester products on TLC), WS2, C16: fatty alcohol C16
T1 sequence (A3RE51 entry or part of it): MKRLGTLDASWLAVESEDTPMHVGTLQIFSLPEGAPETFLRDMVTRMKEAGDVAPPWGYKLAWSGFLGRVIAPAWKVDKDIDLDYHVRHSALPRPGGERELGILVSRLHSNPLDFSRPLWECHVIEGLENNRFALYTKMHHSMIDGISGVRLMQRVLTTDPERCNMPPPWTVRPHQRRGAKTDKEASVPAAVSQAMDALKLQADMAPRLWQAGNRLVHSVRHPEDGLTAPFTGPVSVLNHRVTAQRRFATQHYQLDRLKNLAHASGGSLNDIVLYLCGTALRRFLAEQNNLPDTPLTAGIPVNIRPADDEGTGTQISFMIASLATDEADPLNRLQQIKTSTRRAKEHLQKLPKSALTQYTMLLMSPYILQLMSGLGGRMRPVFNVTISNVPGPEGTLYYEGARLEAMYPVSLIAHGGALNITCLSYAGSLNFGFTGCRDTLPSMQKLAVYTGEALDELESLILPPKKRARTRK
Protocol: as §1, §2

[6] = test system: WS3; test: Coupled enzyme assay, WS substrate profile (TLC); assay type: biochemical, Marinobacter hydrocarbonoclasticus DSM 8798; conditions: coupled reaction; palmitic acid with hexadecanol, phytanic acid with phytol
Protocol: as §1
(§5) In vitro WS assay samples were extracted with 500 μl of chloroformmethanol (1:1 [vol/vol]), and extracts were analyzed by TLC with Whatman normal phase silica gel 60 plates and developed using hexane-diethyl ether-acetic acid (90:10:1 [vol/vol/vol]). […]

[7] = biological target: T1, WS2; test: WS2 kinetics on ethanol and oleoyl-CoA (DTNB); assay type: biochemical, Marinobacter hydrocarbonoclasticus
Protocol: […] Assay reactions were pre-incubated at 37° C. for 5 minutes before the reactions were started by the addition of enzyme.

[8] = test system: WS1; test: DGAT assay (TLC); assay type: biochemical, Marinobacter hydrocarbonoclasticus DSM 8798; conditions: oleoyl-CoA as acyl donor, dipalmitoyl-glycerol as acyl acceptor
Text: (§6) TLC plates were stained with either iodine vapor or anisaldehyde solution as described earlier (Jork et al., 1990. Thin-layer chromatography reagents and detection methods, vol. 1a. Physical and chemical detection methods: fundamentals, reagents. VHC, Weinheim, Germany). Palmitoyl palmitate and triolein were used as WE and TAG reference compounds, respectively.

[9] = biological target: T1, WS2; test: DGAT assay (TLC); assay type: biochemical, Marinobacter hydrocarbonoclasticus DSM 8798; conditions: oleoyl-CoA as acyl donor, dipalmitoyl-glycerol as acyl acceptor
Text: as §6

[10] = biological target: T2, Acinetobacter WS/DGAT (Acinetobacter baylyi, UniProt Q8GGG1); test: Coupled enzyme assay (TLC); assay type: biochemical, Acinetobacter baylyi ADP1; conditions: phytanic acid and phytol as substrates
T2 construct: His6 (N); made in house
T2 sequence (Q8GGG1 1-458): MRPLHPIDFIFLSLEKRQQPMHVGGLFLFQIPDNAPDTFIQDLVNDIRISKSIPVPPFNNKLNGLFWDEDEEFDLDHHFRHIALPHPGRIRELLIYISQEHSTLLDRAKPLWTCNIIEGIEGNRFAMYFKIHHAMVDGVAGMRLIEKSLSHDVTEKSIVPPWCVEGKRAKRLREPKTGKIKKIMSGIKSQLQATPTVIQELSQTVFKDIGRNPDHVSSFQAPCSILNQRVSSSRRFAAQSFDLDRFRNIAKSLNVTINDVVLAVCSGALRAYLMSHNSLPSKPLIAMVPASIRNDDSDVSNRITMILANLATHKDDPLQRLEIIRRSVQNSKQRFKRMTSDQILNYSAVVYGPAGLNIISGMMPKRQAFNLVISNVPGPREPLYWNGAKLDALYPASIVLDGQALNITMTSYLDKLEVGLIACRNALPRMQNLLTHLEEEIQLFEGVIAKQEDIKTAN
Protocol: as §1, §5

[11] = test system: Acs1; test: CoA synthetase assay (HPLC, LC-MS); assay type: biochemical, Marinobacter hydrocarbonoclasticus DSM 8798; conditions: 10 mM acid, 20 min at 37° C.
Protocol: as §3, §4

[12] = test system: FadD; test: CoA synthetase assay (HPLC, LC-MS); assay type: biochemical, Pseudomonas putida; conditions: purified recombinant protein

| SMILES | WE formation (spot intensity of wax ester products on TLC), WS1, Farnesol [1] | WE formation (spot intensity of wax ester products on TLC), WS1, Phytol [1] | WE product formation by WS1 (TLC), in words [1] | WE formation (spot intensity of wax ester products on TLC), WS1, C10 [1] | WE formation (spot intensity of wax ester products on TLC), WS1, C12 [1] | WE formation (spot intensity of wax ester products on TLC), WS1, C14 [1] | WE formation (spot intensity of wax ester products on TLC), WS1, C16 [1] | CoA activation by Acs2 [2] | CoA activation by Acs3 [3] | CoA activation by Acs4 [4] | WE formation (spot intensity of wax ester products on TLC), WS2, Farnesol [5] | WE formation (spot intensity of wax ester products on TLC), WS2, Phytol [5] | WE product formation by WS2 (TLC), in words [5] | WE formation (spot intensity of wax ester products on TLC), WS2, C10 [5] | WE formation (spot intensity of wax ester products on TLC), WS2, C12 [5] | WE formation (spot intensity of wax ester products on TLC), WS2, C14 [5] | WE formation (spot intensity of wax ester products on TLC), WS2, C16 [5] | WE product formation by WS3 (TLC), in words [6] | further results |
| --- | --- | --- | --- | --- | --- | --- | --- | --- | --- | --- | --- | --- | --- | --- | --- | --- | --- | --- | --- |
| CCCCCCCCCCCCCCCC(=O)O [C16, palmitic acid] | ++ | + | Products were observed | + | ++ | + | +++ | most activity | most activity | most activity | ++ | + | Products were observed | + | + | ++ | +++ | no products were observed |  |
| CCCCCCCC/C=C\CCCCCCCC(=O)SCCNC(=O)CCNC(=O)[C@H](O)C(C)(C)COP(=O)(O)OP(=O)(O)OC[C@H]1O[C@@H](n2cnc3c(N)ncnc32)[C@H](O)[C@@H]1OP(=O)(O)O [Oleoyl-CoA] |  |  |  |  |  |  |  |  |  |  |  |  |  |  |  |  |  |  | Kcat of WS2 ([7]; steady state on ethanol and oleoyl-CoA): 59 s⁻¹; Vmax of WS2 ([7]; steady state, varied substrate 10 μM-250 μM, other substrate (oleoyl-CoA or ethanol) 500 μM): 1667 μmol (mg/min)^−1; DGAT activity of WS1 (TAG product on TLC) [8]: TAG products were only detected for WS1; also recorded: Only WS1 shows DGAT activity; DGAT activity of WS2 (TAG product on TLC) [9]: did not show DGAT activity |
| CC(C)CCCC(C)CCCC(C)CCCC(C)CC(=O)O (stereo not shown) [Phytanic acid] | + | + | Products were observed | − | − | − | − | converted phytanic acid into phytanoyl-CoA | Only Acs2 converted phytanic acid into phytanoyl-CoA | Only Acs2 converted phytanic acid into phytanoyl-CoA | ++ | ++ | Products were observed | − | − | − | − | no products were observed | Isoprenoid WE formation by Acinetobacter WS/DGAT [10]: did not show isoprenoid WE formation; CoA activation by Acs1 [11]: Only Acs2 converted phytanic acid into phytanoyl-CoA; CoA activation by P. putida FadD [12]: does not synthesize phytanoyl-CoA; also recorded: did not activate phytanic acid |
